Our source for the IC50 values is US8119663B2, “Heteroaryl-substituted piperidines” (Bayer Pharma Aktiengesellschaft, priority 2007, dated 2012).

The target in the test is T1, human protease activated receptor 1 (PAR1) (Homo sapiens, UniProt P25116).
T1 construct: the cell stably expresses the endogenous human PAR1 receptor and the endogenous purinergic receptor P2Y2; endogenous in cells; host or cells: HEK293-derived recombinant cell line constitutively expressing mitochondrial aequorin
T1 sequence (P25116 22-425): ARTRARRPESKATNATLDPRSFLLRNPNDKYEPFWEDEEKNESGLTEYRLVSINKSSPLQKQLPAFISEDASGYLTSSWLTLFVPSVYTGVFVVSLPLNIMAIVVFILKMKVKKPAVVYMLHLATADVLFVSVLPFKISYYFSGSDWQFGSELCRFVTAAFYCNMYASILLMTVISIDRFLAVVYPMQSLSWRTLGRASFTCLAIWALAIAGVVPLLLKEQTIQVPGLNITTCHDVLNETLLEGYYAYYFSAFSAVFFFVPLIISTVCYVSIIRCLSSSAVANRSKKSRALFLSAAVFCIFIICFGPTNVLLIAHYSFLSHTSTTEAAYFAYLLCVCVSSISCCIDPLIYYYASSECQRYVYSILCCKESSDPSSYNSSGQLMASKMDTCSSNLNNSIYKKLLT
The test can be described thus: Cellular functional in vitro test (aequorin luminescence, PAR1 test cell). It is filed as cell-based. Particulars: recombinant HEK293-derived cell line expressing aequorin; PAR1 agonist added at its EC50 5 minutes after test substance. An excerpt: 1.a) Cellular Functional In vitro Test
A recombinant cell line is used to identify […] of the human protease activated receptor 1 (PAR1) and to quantify the activity of the substances described herein. The cell is originally derived from a human embryonal kidney cell (HEK293; ATCC: American Type Culture Collection, Manassas, Va. 20108, USA). The test cell line constitutively expresses a modified form of the calcium-sensitive photoprotein aequorin which, after reconstitution with the cofactor coelenterazine, emits light when the free calcium concentration in the inner mitochondrial compartment is increased (Rizzuto R, Simpson A W, Brini M, Pozzan T.; Nature 1992, 358, 325-327). Additionally, the cell stably expresses the endogenous human PAR1 receptor and the endogenous purinergic receptor P2Y2. The resulting PAR1 test cell responds to stimulation of the endogenous PAR1 or P2Y2 receptor with an intracellular release of calcium ions, which can be quantified through resulting aequorin luminescence with a suitable luminometer (Milligan G, Marshall F, Rees S, Trends in Pharmacological Sciences 1996, 17, 235-237).
For testing the substance specificity, its effect after activation of the endogenous PAR1 receptor is compared to the effect after activation of the endogenous purinergic P2Y2 receptor which utilizes the same intracellular signal path.
Test procedure: The cells are plated out two days (48 hours) before the test in culture medium (DMEM F12, supplemented with 10% FCS, 2 mM glutamine, 20 mM HEPES, 1.4 mM pyruvate, 0.1 mg/ml gentamycin, 0.15% Na bicarbonate; BioWhittaker Cat.# BE04-687Q; B-4800 Verviers, Belgium) in 384-well microtitre plates and kept in a cell incubator (96% atmospheric humidity, 5% V/V CO2, 37° C.). On the day of the test, the culture medium is replaced by a tyrode solution (in mM: 140NaCl, 5l KCl, 1MgCl2, 2CaCl2, 20 glucose, 20 HEPES), which additionally contains the cofactor coelenterazine (25 μM) and glutathione (4 mM), and the microtitre plate is then incubated for a further 3-4 hours. The test substances are then pipetted onto the microtitre plate, and 5 minutes after the transfer of the test substances into the wells of the microtitre plate the plate is transferred into the luminometer, a PAR1 agonist concentration which corresponds to the EC50 is added and the resulting light signal is immediately measured in the luminometer. To distinguish an antagonist substance action from a toxic action, the endogenous purinergic receptor is immediately subsequently activated with agonist (ATP, final concentration 10 μM) and the resulting light signal is measured.
The IC50 is the concentration needed to halve the response being measured. As to `CCc1ccc(C2CC(c3nc(-c4ccc(F)cc4F)no3)CN(C(=O)N3CCOCC3)C2)cc1` (racemic) [Example 37, 4-({3-[3-(2,4-Difluorophenyl)-1,2,4-oxadiazol-5-yl]-5-(4-ethylphenyl)piperidin-1-yl}carbonyl)-morpholine], the IC50 amounted to 21 nM.

Turning to `Cc1noc(C2CC(c3ccc(C(F)(F)F)cc3)CN(C(=O)N3CCOCC3)C2)n1` (single isomer, unassigned) [Example 335, {3-(3-Methyl-1,2,4-oxadiazol-5-yl)-5-[4-(trifluoromethyl)phenyl]piperidin-1-yl}(morpholin-4-yl)-methanone], the IC50 came to 25.1 nM. The value for `Cc1ccncc1-c1noc(C2CC(c3ccc(C(F)(F)F)cc3)CN(C(=O)N3CCOCC3)C2)n1` (racemic) [Example 329, {3-[3-(4-Methylpyridin-3-yl)-1,2,4-oxadiazol-5-yl]-5-[4-(trifluoromethyl)phenyl]piperidin-1-yl}-(morpholin-4-yl)methanone] was 24 nM; that for `Cc1ccc(C2CC(c3nc(C(C)C)no3)CN(C(=O)N3CCC(O)CC3)C2)cc1C` (racemic) [Example 234, {3-(3,4-Dimethylphenyl)-5-[3-(propan-2-yl)-1,2,4-oxadiazol-5-yl]piperidin-1-yl}(4-hydroxy-piperidin-1-yl)methanone] was 15.4 nM; that for `CCc1ccc(C2CC(c3nc(CCOC)no3)CN(C(=O)N3CCOCC3)C2)cc1` (racemic) [Example 150, {3-(4-Ethylphenyl)-5-[3-(2-methoxyethyl)-1,2,4-oxadiazol-5-yl]piperidin-1-yl}(morpholin-4-yl)methanone] was 19 nM. On to `COCCc1noc(C2CC(c3ccc(C(F)(F)F)cc3)CN(C(=O)N3CC(O)C3)C2)n1` (single isomer, unassigned) [Example 279], for which the half-inhibitory concentration (IC50) was 14.7 nM. In the case of `CCc1csc(C2CC(c3ccc(OC(F)(F)F)cc3)CN(C(=O)N3CCOCC3)C2)n1` (racemic) [Example 490, {3-(4-Ethyl-1,3-thiazol-2-yl)-5-[4-(trifluoromethoxy)phenyl]piperidin-1-yl}(morpholin-4-yl)-methanone] it was 25.1 nM; in that of `CC(C)(C)c1csc(C2CC(c3ccc(OC(F)(F)F)cc3)CN(C(=O)N3CCOCC3)C2)n1` (racemic) [Example 487, {3-(4-tert-Butyl-1,3-thiazol-2-yl)-5-[4-(trifluoromethoxy)phenyl]piperidin-1-yl}(morpholin-4-yl)-methanone], 107 nM. The value for `Cc1ccc(C2CC(c3nc(C(C)C)no3)CN(C(=O)N3CCC(C#N)CC3)C2)cc1C` (racemic) [Example 197, 1-({3-(3,4-Dimethylphenyl)-5-[3-(propan-2-yl)-1,2,4-oxadiazol-5-yl]piperidin-1-yl}carbonyl)-piperidine-4-carbonitrile] was 77.5 nM. The value for `Cc1cc(-c2noc(C3CC(c4ccc(OC(F)(F)F)cc4)CN(C(=O)N4CCOCC4)C3)n2)no1` (racemic) [Example 249, {3-[3-(5-Methylisoxazol-3-yl)-1,2,4-oxadiazol-5-yl]-5-[4-(trifluoromethoxy)phenyl]piperidin-1-yl}(morpholin-4-yl)methanone] was 13.1 nM.

Take `CCSCc1csc(C2CC(c3ccc(CC)cc3)CN(C(=O)N3CCOCC3)C2)n1` (racemic) [Example 484, [3-(4-Ethylphenyl)-5-{4-[(ethylsulphanyl)methyl]-1,3-thiazol-2-yl}piperidin-1-yl](morpholin-4-yl)methanone]: the IC50 is 76.6 nM.

With `CCc1ccc(C2CC(c3nc(C(C)(C)C)no3)CN(C(=O)N3CCC(O)CC3)C2)cc1` (racemic) [Example 152], the concentration for half-maximal inhibition (IC50) was 48.1 nM.

On to `CCc1ccc(C2CC(c3nc(CCOC)no3)CN(C(=O)N3CCC(O)CC3)C2)cc1` (single isomer, unassigned) [Example 549, {3-(4-Ethylphenyl)-5-[3-(2-methoxyethyl)-1,2,4-oxadiazol-5-yl]piperidin-1-yl}(4-hydroxy-piperidin-1-yl)methanone], for which the IC50 is 12.5 nM. In the case of `Cc1cc(C2CC(c3nc(C4CC4)no3)CN(C(=O)N3CCC(O)CC3)C2)ccc1OC(F)(F)F` (racemic) [Example 230, {3-(3-Cyclopropyl-1,2,4-oxadiazol-5-yl)-5-[3-methyl-4-(trifluoromethoxy)phenyl]piperidin-1-yl}(4-hydroxypiperidin-1-yl)methanone] it was 2.81 nM; in that of `COCCc1noc(C2CC(c3ccc(OC(F)(F)F)cc3)CN(C(=O)N3CCOCC3)C2)n1` (single isomer, unassigned) [Example 178, {3-[3-(2-Methoxyethyl)-1,2,4-oxadiazol-5-yl]-5-[4-(trifluoromethoxy)phenyl]piperidin-1-yl}-(morpholin-4-yl)methanone], 17.1 nM; in that of `O=C(N1CCOCC1)N1CC(c2cccc(C(F)(F)F)c2)CC(c2nc(-c3cc(F)ccc3F)no2)C1` (stereo not drawn) [Example 356], 2.73 nM.

In the case of `COCCc1noc(C2CC(c3ccc(OC(F)(F)F)c(C)c3)CN(C(=O)N3CCOCC3)C2)n1` (single isomer, unassigned) [Example 322, {3-[3-(2-Methoxyethyl)-1,2,4-oxadiazol-5-yl]-5-[3-methyl-4-(trifluoromethoxy)phenyl]piperidin-1-yl}(morpholin-4-yl)methanone], the IC50 is 3.01 nM. In the case of `O=C(N1CCOCC1)N1CC(c2ccc(C(F)(F)F)cc2)CC(c2noc(-c3cccc(F)c3)n2)C1` (racemic) [Example 159, {3-[5-(3-Fluorophenyl)-1,2,4-oxadiazol-3-yl]-5-[4-(trifluoromethyl)phenyl]piperidin-1-yl}-(morpholin-4-yl)methanone] it was 4.61 nM. In the case of `CN(C)Cc1nnc(C2CC(c3ccc(OC(F)(F)F)cc3)CN(C(=O)N3CCOCC3)C2)o1` (racemic) [Example 470, {3-{5-[(Dimethylamino)methyl]-1,3,4-oxadiazol-2-yl}-5-[4-(trifluoromethoxy)phenyl]piperidin-1-yl}(morpholin-4-yl)methanone] it was 4.16 nM; in that of `CCc1ccc(C2CC(c3nc(C(C)(C)O)no3)CN(C(=O)N3CCC(O)CC3)C2)cc1` (racemic) [Example 187, {3-(4-Ethylphenyl)-5-[3-(2-hydroxypropan-2-yl)-1,2,4-oxadiazol-5-yl]piperidin-1-yl}(4-hydroxy-piperidin-1-yl)methanone], 53.4 nM; in that of `Cc1noc(C2CC(c3ccc(C(F)(F)F)cc3)CN(C(=O)N3CCC(O)CC3)C2)n1` (single isomer, unassigned) [Example 260, (4-Hydroxypiperidin-1-yl){(3-(3-methyl-1,2,4-oxadiazol-5-yl)-5-[4-trifluoromethyl)phenyl]-piperidin-1-yl}methanone], 11.4 nM. With `COCCc1noc(C2CC(c3ccc(OC(F)(F)F)cc3)CN(C(=O)N3CCC(O)CC3)C2)n1` (single isomer, unassigned) [Example 449, (4-Hydroxypiperidin-1-yl) {3-[3-(2-methoxyethyl)-1,2,4-oxadiazol-5-yl]-5-[4-(trifluoromethoxy)-phenyl]piperidin-1-yl}methanone], the IC50 amounted to 86.3 nM. In the case of `CC(C)c1nnc(C2CC(c3ccc(OC(F)(F)F)cc3)CN(C(=O)N3CCOCC3)C2)s1` (racemic) [Example 494, Morpholin-4-yl{3-[5-(propan-2-yl)-1,3,4-thiadiazol-2-yl]-5-[4-(trifluoromethoxy)phenyl]piperidin-1-yl}methanone] it was 5.67 nM.

With `COCCc1noc(C2CC(c3ccc(OC(F)(F)F)cc3)CN(C(=O)N3CCC(O)C3)C2)n1` (stereo not drawn) [Example 420, (3-Hydroxypyrrolidin-1-yl) {3-[3-(2-methoxyethyl)-1,2,4-oxadiazol-5-yl]-5-[4-(trifluoromethoxy)-phenyl]piperidin-1-yl}methanone], the IC50 was 23.8 nM.
